Source: patent publication US20220409657A1, “INSTRUCTIONS FOR COMPOSITION AND SENSITIVITY” (Azura Ophthalmics Ltd., priority 2020, published 2022)
Read-outs that look alike come from different tables or passages of the source.

What was measured:
human subjects [1] = test system: human subjects
Excerpt: In a clinical study three different concentrations were used; 0.1 wt. %, (10 subjects) 0.5 wt. % (12 subjects) and 1 wt. % (26 subjects).

human subjects [2] = conditions: in vivo
Excerpt: An additional 2 or 3 additional cases of adverse effects. Of these subjects, 2 had keratitis following the 1st in-office application and another patient deteriorate following the 2nd in-office application although the subject kept on another dose or two at home before coming with pain to be examined (a typical scenario when keratitis evolves).

human subject = test system: human subject
Procedure: In most instances, the treatment is applied on a biweekly basis, however some patients move to daily application based on prespecified protocol criteria. Because the ointment-based composition is known to mix with tear fluid and cause blurry vision, individuals in this study are advised to apply the treatment prior to bed so as to avoid risks associated with reduced vision acuity. […] The in-office applications are conducted at specific, pre-determined time points. In these instances, the treatment is not applied before bed but rather is performed during daylight hours.

study patients = conditions: in vivo
Procedure: In a first study patients were instructed to dose in both the evening, between visits, and in the daytime during regular scheduled clinic visits as part of the study protocol. Study patients received a 2-week run-in on a placebo which was administered twice weekly for a period of two weeks.
Adverse events comprise a feeling of grittiness, foreign body feeling, stinging, blurry vision, redness, tired eyes, water eyes, irritation, lid abnormalities, burning, corneal abrasion, photophobia, staining, or dry eye disorder (DED).

[3] = test system: meibomian gland disorder (MGD) patients; conditions: twice a week, 3 month time point
Procedure: The drug was applied twice a week and final evaluation was done at the 3 month time point in which the primary outcome of Meibomian Gland Score (MGS) was assessed.

rabbits = conditions: dose about 4 mg, concentration up to 2.5 wt. %, ointment over the eyelid margin
animals = conditions: in vivo; cited from earlier work
seborrheic blepharitis = conditions: cited from earlier work
[4] = in vivo; cited from earlier work

selenium disulfide [SeS2]
adverse events during the first month (human subjects [1]; human, in vivo): no adverse events
initiation of pain after the application (human subjects [1]; human, in vivo): 6 to 20 h
keratitis after in-office, daytime applications (human subjects [1]; human, in vivo): no development of keratitis
keratitis in bedtime applications (human subjects [1]; human, in vivo): without a single occurrence of keratitis
subjects who developed keratitis or keratitis related symptoms (human subjects [1]; human, in vivo): four
time from in-office morning application to significant pain (human subjects [1]; human, in vivo): About 7 hours
total OSDI, VAS and SPEED (human subjects [1]; one patient, 1 wt. %, first month, twice weekly at home before bedtime): significant improvement
additional cases of adverse effects (human subjects [2]): 2-3 cases
subjects with keratitis following the 1st in-office application (human subjects [2]): 2 subjects
keratitis (human subject; 0.1 wt. % concentration): Keratitis is not observed
keratitis (human subject; 0.5 wt. % concentration): Keratitis is not observed
patients noting symptoms of keratitis (human subject; 1 wt. % cohort, following in-office assessment): four
bedtime applications resulting in keratitis (human subject; 400 or more bedtime applications): none
health outcomes by OSDI, VAS and SPEED (human subject; at least one patient, one month of treatment, 1 wt. %): improved health outcomes
time from in-office assessment to significant pain near the treated area (human subject; one patient, 1 wt. %): ≤ 7 h
reduction in the incidence of ocular adverse events (study patients): 75%
reduction of discontinuations from adverse events (DC for AE) (study patients): at least 50%
reduction of rates of ocular adverse events (ocular AE) (study patients): at least 50%
average change from baseline in Meibomian Gland Score (MGS) ([3]; 9 patients using finger): 10 (+/− 8.2)
average change from baseline in Meibomian Gland Score (MGS) ([3]; 13 patients using applicator): 2.3 (+/− 4.4)
tolerability (rabbits): well tolerated
safe concentration for use in humans (animals): 0.5%
treatment of seborrheic blepharitis (seborrheic blepharitis; SeS2 0.5%): effective
adverse events following topical ocular use (seborrheic blepharitis; human, in vivo): superficial punctate keratitis and conjunctivitis
contact dermatitis [4]: can produce contact dermatitis
contact or photo-contact dermatitis in tinea versicolor treatment [4]: None of the investigators encountered a single case
hair loss after shampooing [4]: diffuse hair loss
skin reaction after shampoo applied three consecutive nights [4]: developed circumscribed eczematous plaques
